{"source": "patent US9491943B2", "about": "“Bioengineering strain for production of novel microorganism-originated fungicides and uses thereof” (SHANGHAI JIAOTONG UNIVERSITY, priority 2011, dated 2016)", "test_system": "rhizoctonia solani", "assay": "Antifungal rate (inhibition of hypha growth) on potato glucose culture medium plates", "assay_type": "cell-based", "conditions": "16 mg/L in potato glucose culture medium, 28° C."}
{"smiles": "NC(=O)c1cccc2nc3ccccc3nc12", "note": "[phenazine-1-carboxamide]", "values": [{"measurement": "antifungal activity (antifungal rate) against rhizoctonia solani", "setting": "acidity (pH) 4.0", "value": 65, "unit": "%"}, {"measurement": "antifungal activity (antifungal rate) against rhizoctonia solani", "setting": "acidity (pH) 5.0", "value": 69, "unit": "%"}, {"measurement": "antifungal activity (antifungal rate) against rhizoctonia solani", "setting": "acidity (pH) 6.0", "value": 73.6, "unit": "%"}, {"measurement": "antifungal activity (antifungal rate) against rhizoctonia solani", "setting": "acidity (pH) 7.0", "value": 80.1, "unit": "%"}, {"measurement": "antifungal activity (antifungal rate) against rhizoctonia solani", "setting": "acidity (pH) 8.0", "value": 90, "unit": "%"}]}
